Assay results taken from US20240299353A1, “COMPOSITIONS AND METHODS FOR TREATING […] 5-MEO-DMT” (Alvarius Pharmaceuticals Ltd., priority 2021, published 2024).

How the values were obtained:
rats [1] = assay: Forced swim test; assay type: in vivo; conditions: cohort 2; for immobility or time spent swimming: between treatment groups
Description: (§1) In this instance the animals were 9 weeks old at the initiation of drug exposures and we selected just the high (20 mg/kg) dose of 5-MeO-DMT from the molecular study. […] Due to the number of behavioral paradigms to be completed by each animal we divided the study into two cohorts staggered by two weeks with 8 animals coming from each cohort to make up the 16 animals for each treatment group. 23 hours after 5-MeO-DMT administration the animals were introduced to the open field arena where they were allowed to freely explore the area for 5 mins. Following the open field test (OFT) animals were returned to their home cage for 2 hours before beginning either the elevated plus maze (EPM) or pre-pulse inhibition (PPI) testing. 24 hours after completing the OFT animals were returned to the chamber for the first session in novel object (NO1) testing. The animals were returned to their home cage for 2 hours before beginning the EPM or PPI test. 24 hours after NO1 the animals returned to the open field chamber for the second session in novel object (N02) testing. After completing N02 animals were returned to their home cage for 2 hours before they underwent the forced swim test (FST) pre-test. 24 hours later the animals were returned to the FS cylinders for the FST. Upon completion of the FST all animals were euthanized. A timeline of this experimental cohort is described in FIG. 8A.
The experiment was conducted as described for cohort 1 for the first 13 days of injections. There are a number of notable differences in experimental procedures between the two cohorts of animals to be highlighted. […] Finally, the dose of 5-MeO-DMT was reduced to 10 mg/kg. […]
The FST apparatus consisted of a clear Plexiglas cylinder measuring 80 cm tall, 20 cm in diameter and filled with 40 cm of 24+1° C. water. […] 24 hours later, rats were again placed in the FST apparatus for 5 min and their activity was video recorded (FIG. 12A-12B). Each video was scored for immobility, swimming, and climbing behavior by trained blinded observers.

rats [2] = assay: Elevated plus maze; assay type: in vivo
Description: as §1
The experiment was conducted as described for cohort 1 for the first 13 days of injections. There are a number of notable differences in experimental procedures between the two cohorts of animals to be highlighted. […] Finally, the dose of 5-MeO-DMT was reduced to 10 mg/kg. The order and timing of all the behavioral paradigms were kept constant between the cohorts. A timeline of this experimental cohort is described in FIG. 8B. Additionally, 5-MeO-DMT administrations were staggered so animals could be observed for the duration of acute drug effects and to ensure recovery prior to the next animal being injected. The typical symptoms of psychedelic drug administration outlined above were reproduced in all animals administered 5-MeO-DMT.
Our EPM apparatus consisted of a plus-shaped white plastic platform positioned 100 cm above the ground. Two opposite arms of the maze were bordered by vertical walls measuring 20 cm high, with the other two arms open to the environment with no edges. Animals were placed into the centre of the maze facing a closed arm and allowed to explore freely for 5 min. At the conclusion of the test, rats were returned to their home cages and the apparatus was cleaned with 2% distal. Animal movement was recorded during the trial using Any-Maze software. Time spent in open or closed arms, number of entries into open arms and number of grooming behaviors were all quantified (FIG. 10A-10B). Behavioral assessment was conducted in a quiet room under low-level red-light illumination. Behaviors were scored by two observers blind to experimental conditions.

[3] = cohort 1, either treatment or the combination
[4] = cohort 2, either treatment or their combination

| SMILES | immobility or time spent swimming (rats [1]) | climbing time (rats [1]; cocaine and 5-MeO-DMT (10 mg/kg) combination relative to control) | secondary anxiety measures, stretch-attenuated posture (SAP) or head dipping (rats [2]; cohort 1) | total distance travelled, main effect (rats [2]; cohort 1, 5-MeO-DMT p<0.0001) | total distance travelled (rats [2]; cohort 1, cocaine+20 mg/kg 5-MeO-DMT relative to cocaine alone) | duration of time spent in the open arms (rats [2]; [3]) | number of entries into the open arms (rats [2]; [3]) | duration of time spent on the open arms (rats [2]; cohort 2, cocaine and 5-MeO-DMT (10 mg/kg) combination relative to control and 5-MeO-DMT alone) | total distance travelled (rats [2]; [4]) | duration of time spent in the open arms (rats [2]; cohort 2, cocaine p=0.0031) | head dipping (rats [2]; cohort 2, cocaine p=0.0054, no post hoc differences) | number of entries into the open arms (rats [2]; cohort 2, cocaine p=0.0055) |
| --- | --- | --- | --- | --- | --- | --- | --- | --- | --- | --- | --- | --- |
| COc1ccc2[nH]cc(CCN(C)C)c2c1 [5-MeO-DMT, 5-methoxy-N,N-dimethyltryptamine] | no differences in immobility or time spent swimming | significant increase in climbing time | no treatment effects | significant effect | reduction in the total distance travelled | unaffected by either treatment or the combination | unaffected by either treatment or the combination | significantly increased | no effect of either treatment or their combination | – | – | – |
| COC(=O)[C@H]1[C@@H](OC(=O)c2ccccc2)C[C@@H]2CC[C@H]1N2C.Cl [cocaine, cocaine hydrochloride, reference compound] | no differences in immobility or time spent swimming | – | no treatment effects | – | – | unaffected by either treatment or the combination | unaffected by either treatment or the combination | – | no effect of either treatment or their combination | significantly affected | significantly affected | significantly affected |
